From patent publication US20080242682A1, “Preventive or Therapeutic Agent for Sleep Disorder” (Takeda Pharmaceutical Company Limited, priority 2004, published 2008)

How the values were obtained:
[1] = system: Cat; test: Experiment 2: effect of combined use of compound A and gabapentin (GBP) on sleep wakefulness of cat (sleep electroencephalogram); type: in vivo; conditions: oral capsule, 8 hours after administration, compound A 0.1 mg/kg, gabapentin 10 mg/kg
Procedure: Used animals: 4 Siamese cats (purchased from Narc co.), 2 European shorthairs (purchased from Nisseiken co. Ltd.) and 1 mongrel cat (purchased from Narc co.) were used.
Under pentobarbital anesthesia, the following electrode and the like were implanted. An antibiotic was administered to prevent bacterial infection, and taming to cage for measuring electroencephalogram was started from 3 to 4 days after the operation. Measurement of electroencephalogram was carried out after 1 to 2 weeks of taming. • electrode for recording electroencephalogram in frontal lobe of cerebral cortex, frontal lobe and hippocampus • electrode for electrooculogram in orbit bone • stainless wire for recording electromyogram in dorsal cervical muscle […]
After being attached the electrodes for measurement from about 8:30 in the morning, the cats were placed in test box. Administration was conducted by 9:55 to 10:05 in the morning, and the sleep electroencephalogram for 8 hours after administration was measured.
Electroencephalogram data was obtained using Synafit 2500 of NEC Saneisha. […] In addition, the stage judged to be at slow-wave sleep was extracted, frequency analysis was carried out, and power spectrum during slow-wave sleep was calculated. […]

[2] = system: Macaca fascicularis; test: Experiment 1: sleep electroencephalogram (sleep latency and sleep duration in the night) in monkeys after oral administration; type: in vivo; conditions: female Macaca fascicularis, compound A 0.3 mg/kg, ritanserin 1 mg/kg; for SWS (slow-wave sleep) duration in breakdown of sleep duration / total sleep duration: 12 hours from lights-out to lights-on, drug-treated value; for sleep latency of LS / sleep latency of SWS: before lights-out, drug-treated value (vs vehicle, crossover)
Procedure: 3 Female Macaca fascicularis were used for experiment. Drugs were administered according to crossover design. Test animals were operated to place an electrode to measure electroencephalogram, and were naturalized fully to test cage. The test animals were raised under light-dark cycle of 12 hour-light period and 12 hour-dark period (light period is from 6:00 to 18:00).
The dose of compound A was 0.3 mg/kg, and the dose of ritanserin was 1 mg/kg, and these were suspended in 0.5% methylcellulose solution to make dosage of 1 ml/kg. As control, 0.5% methylcellulose solution was used. Administration was conducted orally using transnasal catheter 5 to 10 minutes before extinction (17:50-17:55).
Measurement items were electroencephalogram, ocular movement and myogenic potential, and behavior was observed using infrared camera. Measurement was carried out for 12 hours from lights-out (18:00) to lights-on (6:00).
Data analysis was carried out for sleep latency and total sleep duration in the night.

SMILES | total slow-wave sleep duration [1] [min] | SWS (slow-wave sleep) duration in breakdown of sleep duration [2] [min] | total sleep duration [2] [min] | sleep latency of LS [2] [min] | sleep latency of SWS [2] [min]
CCC(=O)NCC[C@@H]1CCc2ccc3c(c21)CCO3 [compound A, (S)—N-[2-(1,6,7,8-tetrahydro-2H-indeno[5,4-b]furan-8-yl)ethyl]propionamide] | 124.9 | 135 | 610 | 13.3 | 31.3
Cc1nc2sccn2c(=O)c1CCN1CCC(=C(c2ccc(F)cc2)c2ccc(F)cc2)CC1 [ritanserin, reference compound] | – | 249 | 573 | 12.0 | 39.3
